Assay results as given in PubChem BioAssay (NCI).
“And” between values parts separate entries of the source, which are not always exact repeats. Equal values may be shown once.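 Results reflect a 48-hour exposure of cells in 96-well plates to compound at five concentrations. The concentration for 50% growth inhibition is given as GI50. TGI: concentration producing complete growth inhibition.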

Key:
Assay in all cases: NCI-60 cell line screen, 48 h
[1] = tested on: RXF 393 renal
[2] = tested on: CAKI-1 renal
[3] = tested on: RPMI-8226 leukemia
[4] = tested on: A549 NSCLC
[5] = tested on: MDA-MB-435
[6] = tested on: SK-MEL-5 melanoma
[7] = tested on: NCI-H226 lung
[8] = tested on: NCI/ADR-RES ovarian

Compound | TGI [1] | TGI [2] | TGI [3] | TGI [4] | TGI [5] | TGI [6] | TGI [7] | TGI [8] | GI50 [1] | GI50 [3] | GI50 [8] | GI50 [4] | GI50 [5] | GI50 [6] | GI50 [7] | GI50 [2]
CC(CO)[C@H]1OC(=O)C=C2[C@@]13O[C@@H]3[C@H]1OC(=O)[C@@]3(C)[C@H]4O[C@H]4C[C@@]2(C)[C@@H]13 (some centres not stated) | 6.33 µM | 8.25 µM | 8.75 µM | > 39.8 µM | 18.4 µM | > 37.5 µM | 5.47 µM |  |  |  |  |  |  |  |  | 
Nc1c(C(=O)Nc2ccc([As](=O)(O)O)cc2)cnc2nnnn12 | > 100 µM | > 100 µM | > 100 µM | > 100 µM | > 100 µM | > 100 µM | > 100 µM | > 100 µM |  |  |  |  |  |  |  | 
Cc1ccc(C(=O)/C(=C/c2ccc([N+](=O)[O-])cc2)S(=O)Cc2ccccc2)cc1 (configuration not stated) | 3 µM |  | 2.35 µM | 5.66 µM | 3.04 µM | 2.99 µM | 4.72 µM | > 100 µM | 1470 nM | 404 nM | 2460 nM | 2260 nM | 1.47 µM | 1600 nM | 1710 nM | 
CC(=O)c1cccc(N(/C=C/C(=O)C(F)(F)F)CC(=O)c2ccc(Cl)cc2)c1 | > 100 µM | > 100 µM | > 100 µM | > 100 µM | > 100 µM | > 100 µM | > 100 µM | > 100 µM | > 100000 nM | > 100000 nM | > 100000 nM | > 100000 nM | > 100 µM | > 100000 nM | > 100000 nM | > 100000 nM
COc1ccc(C(=O)N2c3ccccc3Sc3ccccc32)c(F)c1 | > 100 µM | > 100 µM | 63 µM | > 100 µM |  | 22.5 µM | > 100 µM | > 100 µM | 764 nM | 922 nM | 517 nM | 1190 nM |  | 759 nM | 2350 nM | 584 nM
CN1C2CC(C#N)C1C=CC2=O (configuration not stated) | 36.1 µM and > 100 µM |  |  | 46 µM and > 100 µM | 36.7 µM and > 100 µM | > 100 µM | 59.6 µM and > 100 µM | 82.9 µM and > 100 µM | 16700 nM and > 100000 nM |  | 25700 nM and > 100000 nM | 18100 nM and > 100000 nM | 16.9 µM and 89.2 µM | > 100000 nM | 24000 nM and > 100000 nM | 
Cc1ccc(C(=O)Nc2ccc(CN3CCN(C)CC3)c(C(F)(F)F)c2)cc1C#Cc1cnc(N)c2ccc(F)cc12 | 0.579 µM | 1.29 µM | 1.64 µM | 0.712 µM | 0.47 µM | 2.18 µM | 3.66 µM | 2.09 µM | 218 nM | 530 nM | 436 nM | 270 nM | 0.123 µM | 805 nM | 737 nM | 216 nM
O=C(CC(C(=O)c1cccs1)c1ccc2c(c1)OCO2)c1ccc(Br)cc1 (configuration not stated) |  | > 100 µM | > 100 µM | > 100 µM | > 100 µM | > 100 µM | > 100 µM | > 100 µM |  |  |  |  |  |  |  | 
Cc1cc2c(C(C)C)c(O)c(O)c(C=Nc3cc(C(F)(F)F)ccc3Cl)c2c(O)c1-c1c(C)cc2c(C(C)C)c(O)c(O)c(C=Nc3cc(C(F)(F)F)ccc3Cl)c2c1O | 97.7 µM | > 100 µM | > 100 µM | > 100 µM | 86 µM | 64.7 µM | 95.4 µM | > 100 µM |  |  |  |  |  |  |  | 
